Test [1] deals with spontaneously hypertensive rats (SHR). Description: Heart rate in anaesthetized spontaneously hypertensive rats (carotid catheter). Format: in vivo. Also on record: Frequency difference (Δ) (reduction in heart rate): unit not given here. To be noted: SHR rat; for Frequency difference (Δ) (reduction in heart rate): single product, intravenous, monitored 20 minutes; for reduction in heart rate, maximum difference (delta): baseline 328 to 371 beats per minute (FIG. 2). As for the experimental part:
(§1) 13/14 week old male SHR rats (Charles River France) are anaesthetized using pentobarbital (Sanofi) (60 mg/kg/IP). […] After a stabilization period of 10 minutes, the product or two products simultaneously are administered and their effects are monitored for 20 minutes.
(§2) For administration purposes, 7-(2-amino-1-oxo-3-thiopropyl)-8-(cyclohexylmethyl)-2-phenyl-5,6,7,8-tetrahydro-imidazo[1,2a]pyrazine, verapamil (Sigma, USA) and captopril (Sigma, USA) can be dissolved in an aqueous solution of NaCl at 0.9%.

Test [2] has the same test system. Briefly: Arterial pressure in anaesthetized spontaneously hypertensive rats (carotid catheter). The format is in vivo. The conditions noted are these: SHR rat, single intravenous injection, verapamil 0.1 or 0.3 mg/kg, captopril 1 mg/kg; for time of return of arterial pressure to initial values after injection: G protein inhibitor 1 mg/kg; for effect on arterial pressure (in words): G protein inhibitor 1 mg/kg (FIG. 1). As for the experimental part: as §1, §2

`C[C@H](CS)C(=O)N1CCC[C@H]1C(=O)O` [Captopril, captopril]: the “Frequency difference (Δ) (reduction in heart rate)” value in test [1] (dose 1 mg/kg) is recorded as 1. Further, in test [1] (single products, single intravenous injection (FIG. 2)), the “change of heart rate (in words)” value is recorded as “does not change the heart rate at all”. Moreover, in test [2], the “time of return of arterial pressure to initial values after injection” value (from here on “time of return of arterial pressure”) amounted to 20 min and the “effect on arterial pressure (in words)” value was “immediate reduction”.
For the compound `NC(CS)C(=O)N1CCn2cc(-c3ccccc3)nc2C1CC1CCCCC1` (centres unmarked) [Compound 2, 7-(2-amino-1-oxo-3-thiopropyl)-8-(cyclohexylmethyl)-2-phenyl-5,6,7,8-tetrahydroimidazo[1,2a]pyrazine], the “reduction in heart rate, maximum difference (delta)” value in test [1] (1 mg/kg intravenous) is on record as 44. Further, the “Frequency difference (Δ) (reduction in heart rate)” value in test [1] (dose 1 mg/kg) is 44. For the same compound, in test [2], the “time of return of arterial pressure” value stood at 20 min and the “effect on arterial pressure (in words)” value is on record as “immediate reduction”.
In the case of `COc1ccc(CCN(C)CCCC(C#N)(c2ccc(OC)c(OC)c2)C(C)C)cc1OC` (centres unmarked) [Verapamil, verapamil], the “reduction in heart rate, maximum difference (delta)” value in test [1] (0.1 mg/kg intravenous) was 32; in test [1] (0.3 mg/kg intravenous), 56. The “Frequency difference (Δ) (reduction in heart rate)” value in test [1] (dose 0.1 mg/kg) is reported as 28; in test [1] (dose 0.3 mg/kg), 56. Moreover, the “time of return of arterial pressure” value in test [2] is 20 min. Moreover, the “effect on arterial pressure (in words)” value in test [2] is recorded as “immediate reduction”.
